{"source": "paper PMC13252604", "about": "“First Generation Proteolysis Targeting Chimeras (PROTACs) for the Treatment of Progeria” (Advanced Science, 2026)", "key": {"Lmna^G609G/G609G mice": {"system": "Lmna^G609G/G609G mice", "experiment": "In vivo treatment of progeroid Lmna^G609G/G609G mice", "set-up": "species or system mouse", "protocol": "Weight was monitored during this time and at the end of the period mice were sacrificed and tissue was harvested to determine if PROTAC administration induced a decrease in the levels of progerin in vivo.\nUHPLC with an oven temperature of 31.5 °C. The mass spectrometer ion optics were set in the multiple reaction monitoring mode and the transition selected for quantification […]\nFor in vivo treatment, compound 2 was administrated at a concentration of 25 mg/kg diluted in sterile corn oil (Sigma-Aldrich) intraperitoneally three times per week starting at the age of 6 weeks. The same quantity of corn oil was injected to control […]\nLmnaG609G/G609G and Lmna+/+ mice. […]\nstress in mice. The weight of each mouse was registered 2 to 3 times per week during the duration of the treatment.\nAfter 7 weeks of treatment, mice were euthanized by CO2 inhalation. Immediately after sacrifice, tissues were harvested, frozen in dry ice, and kept at -80 °C until use. For immunoblot analysis, a portion of the corresponding tissue was homogenized, and the protein concentration was determined. Samples containing equivalent amounts of total protein were then subjected to polyacrylamide gel electrophoresis and analyzed as […]"}, "[1]": {"system": "Lmna^G609G/G609G fibroblasts", "experiment": "RT-qPCR of senescence markers in mouse progeroid cells", "format": "cell-based", "settings": "5 µM", "protocol": "Confocal fluorescence microscopy images are representative of 2 independent experiments. […] Representative cropped immunoblots are shown. […] MW, molecular weight (in kDa) markers. (C) PROTAC 2 decreases senescence‐associated β‐galactosidase (SA‐βgal) activity, interleukin (IL) 1α and p16 senescent markers. Lmna^G609G/G609G (G609G) or Lmna^+/+ (WT) fibroblasts were incubated with vehicle or compound 2 (5 µM). […] Data were analysed using one‐way ANOVA followed by Dunnett's post–hoc test. ^*, p < 0.05; ^**, p < 0.01, ^***, p < 0.001, ^****, p < 0.0001 vs G609G cells. […]\nferrocyanide, 0.6 mL 5 M NaCl, 0.2 mL 0.2 M MgCl2, (all from Sigma Aldrich) and 6.2 mL of deionized water in a total volume of 20 mL] in the dark in a humidified incubator at 37 °C for 24 h without CO2 supply. Then, an equal volume of the supernatant of each well was transferred to a new 96-well plate for fluorescence measurement. The resultant production of fluorescein was measured using a FluoStar Optima instrument (BMG Labtech) with an excitation of 485 nm and emission at 535 nm. […]\nTotal RNA was extracted by RNAeasy Mini Kit (Qiagen) according to the manufacturer instructions and subsequently quantified using the NanoPhotometer N60 (Implen). […] Quantitative real-time PCR was run in the QuantStudio 7FLEX (Applied Biosystems) system and results were normalized according to β-actin quantification. […]"}}}
{"smiles": "CC1(C)Oc2cc3oc(=O)ccc3cc2C[C@@H]1OC(=O)CCCCCNc1cccc2c1C(=O)N(C1CCC(=O)NC1=O)C2=O", "note": "(stereo partly drawn) [compound 2]", "values": [{"measurement": "apparent damage or stress in mice", "setting": "Lmna^G609G/G609G mice; 25 mg/kg i.p. in corn oil three times per week", "result": "did not produce any apparent damage or stress in mice"}, {"measurement": "body weight", "setting": "Lmna^G609G/G609G mice; Lmna^G609G/G609G mice, 25 mg/kg i.p. three times per week, seven weeks", "result": "trend toward improved body weight"}, {"measurement": "H3K9Me3 levels in vivo", "setting": "Lmna^G609G/G609G mice; liver, Lmna^G609G/G609G mice, 25 mg/kg i.p. three times per week, 7 weeks", "result": "increased levels of H3K9Me3"}, {"measurement": "progerin levels in vivo", "setting": "Lmna^G609G/G609G mice; lung, Lmna^G609G/G609G mice, 25 mg/kg i.p. three times per week, 7 weeks", "result": "reduced levels of progerin"}, {"measurement": "interleukin (IL) 1α senescent marker", "setting": "[1]", "result": "significantly reduced"}, {"measurement": "p16 senescent marker", "setting": "[1]", "result": "significantly reduced"}]}
